# Results taken from patent US7744927B2, “Methods of promoting hematopoietic and mesenchymal cell proliferation and differentiation” (University of Southern California, priority 1997, dated 2010).
# Tests used:
# rabbit corneal eye = conditions: in vivo; cited from earlier work
# [1] = system: Murine Peritoneal Macrophages; test: Phagocytosis of opsonized yeast by murine peritoneal macrophages; type: cell-based, C57B1/6 mice; conditions: for # Macrophages with Yeast, Yeast # 0 / # Macrophages with Yeast, Yeast # 1-3 / # Macrophages with Yeast, Yeast # 4-6 / # Macrophages with Yeast, Yeast # 7-9 / # Yeast/MO / % Ingesting: 4 hours
# Experimental: Resident peritoneal macrophages have very little phagocytic activity. Exposure of macrophages to inflammatory or activating agents will increase this macrophage function. Resident peritoneal macrophages were harvested from C57B1/6 mice or Sprague Dawley rats and resuspended at a concentration of 1×10^6 cells/ml in phosphate buffered saline (PBS). Five separate 0.5 ml cell aliquots were placed on a glass coverslip in a 35 mm petri dish. Prior to incubation, either 0.5 ml of PBS, AII, or AII analogues or fragments at between 1-1000 ug/ml final concentration was added to the individual cover slips. The dishes containing the cover slips were then incubated at 37° C. for 4 hours, after which the cover slips were washed 3 to 6 times with PBS. Opsonized yeast particles (Sigma Chemical Co.) (yeast opsonized with adult serum from the same species as that under study) were added to the cover slips and incubated for 2 hours, after which the cover slips were again washed with PBS and inverted onto a glass slide. The number of macrophages that ingested yeast and the number of yeast per macrophage ingested was then determined microscopically. At least 100 macrophages per coverslip were counted. The data from this study are summarized in Tables 3 and 4 and FIGS. 1 and 2.
# [2] = system: cultured cells that are involved in wound repair; conditions: cited from earlier work
# [3] = system: chick chorioallantoic membrane; conditions: in vivo; cited from earlier work
# [4] = system: human peripheral blood mononuclear cells (PBMC); test: Respiratory burst (hydrogen peroxide generation), human PBMC; type: cell-based; conditions: alone and in response to PMA 10 ng/ml; 4 hours exposure
# Experimental: The respiratory burst of leukocytes (macrophages and polymorphonuclear neutrophils) is one component of the mediator system used to kill bacteria. As with phagocytosis, the level of this respiratory burst activity in resident macrophages is low. […] Studies were conducted to assess the effect of in vitro exposure of murine or rat peritoneal macrophages and human peripheral blood mononuclear cells (PBMC) to various concentrations of AII on the capacity to generate hydrogen peroxide via the respiratory burst system. For the human studies, five different donors were examined.
# The murine or rat peritoneal cells were harvested by lavage with 5-15 ml of cold PBS with 0.5% bovine serum albumin. The human PBMC were harvested by venipuncture from normal human volunteers and isolated from peripheral blood by Ficoll Hypaque density centrifugation. After isolation, the cells were resuspended at 1×10^6 cells/ml and placed at 100 μl per well into 96 well plates. The cells were incubated with various concentrations of AII or AII analogues for 4 hours at 37° C. The cells were then preloaded with a fluorescent probe for hydrogen peroxide, 2,7 dichlorofluorescein acetate, which is nonfluorescent in the absence of hydrogen peroxide. Fifteen minutes later, 10 ng/ml of phorbol myristate acetate (+PMA) or PBS (−PMA) was added to stimulate the production of hydrogen peroxide. One hour after stimulation the level of fluorescence produced was measured on a Cytofluor 2350 multiwell fluorometer.
# murine HPC = test: Murine HPC colony formation in semi-solid culture with colony stimulating factors; type: cell-based, C57B1/6 mice; conditions: for macroscopic colonies: day 14, enriched HPC from untreated (normal) mice
# Experimental: HPC were harvested from C57B1/6 mice by immunomagnetic affinity chromatography and placed in semi-solid cultures with optimal growth medium. At various times after initiation of culture, the formation of colonies and the size of the colonies (number of cells/colony) was assessed microscopically.
# Female C57B1/6 mice were purchased from Simonson and used as a source of bone marrow cells in this study. The bone marrow was harvested, either from untreated mice or from mice injected with 5-fluorouracil (5-FU) (3 mg/mouse; approximately 150 mg/kg) in the tail vein 48 hours before harvest, from the femur and tibia of mice by flushing with phosphate buffered saline (PBS), pH 7.4, containing 2% fetal bovine serum (FBS) with a 21-gauge needle. The eluant from the flushing was centrifuged and the pellet was resuspended at 4×10^7 nucleated cells/ml in PBS containing PBS containing 2% FBS and 5% normal rat serum.
# The reagents for immunomagnetic labeling were purchased from Stem Cell Technologies, Inc. (Vancouver, BC). Biotin-labeled monoclonal antibodies to the following murine lineage-specific cell surface antigens were included in a cocktail for HPC enrichment and used according to the manufacturer's instructions: CD5 (Ly-1), CD45-R (B220), CD11b (Mac-1), Myeloid Differentiation Antigen (Gr-1) and Erythroid Cells (TER 119) Ten μl of antibody cocktail was added for each of the 2 sets of bone marrow (normal and 5-FU-treated), mixed and allowed to incubate at 4° C. for 15 minutes. The cells were then resuspended at 4×10^7 cells/ml in PBS containing 2% FBS. The antibody cocktail was then washed out and 100 μl anti-biotin tetramer was added for each ml of cells. The suspension was mixed and incubated at 4° C. for 15 minutes. Sixty μl of magnetic colloid was then added for each ml of cells, the combination was mixed and incubated at 4° C. for 15 minutes to yield the immunomagnetically-labeled bone marrow cells.
# A column containing a stainless steel matrix was prepared by washing the matrix with PBS followed by washing with PBS containing 2% protein. […]
substance,measurement,setting,value
"Asp-Arg-Val-Tyr-Ile-His-Pro-Phe [AII, known pressor agent, commercially available]",angiogenic activity,rabbit corneal eye,angiogenic
same,phagocytic capability of peritoneal macrophages,[1]; 10 μg/ml or greater,tremendously increased
same,"# Macrophages with Yeast, Yeast # 0",[1]; AII 1 μg/ml,100
same,"# Macrophages with Yeast, Yeast # 1-3",[1]; AII 1 μg/ml,1
same,"# Macrophages with Yeast, Yeast # 4-6",[1]; AII 1 μg/ml,0
same,"# Macrophages with Yeast, Yeast # 7-9",[1]; AII 1 μg/ml,0
same,# Yeast/MO,[1]; AII 1 μg/ml,0.01
same,% Ingesting,[1]; AII 1 μg/ml,1%
same,"# Macrophages with Yeast, Yeast # 0",[1]; AII 10 μg/ml,100
same,"# Macrophages with Yeast, Yeast # 1-3",[1]; AII 10 μg/ml,3
same,"# Macrophages with Yeast, Yeast # 4-6",[1]; AII 10 μg/ml,4
same,"# Macrophages with Yeast, Yeast # 7-9",[1]; AII 10 μg/ml,0
same,# Yeast/MO,[1]; AII 10 μg/ml,0.24
same,% Ingesting,[1]; AII 10 μg/ml,6.5%
same,"# Macrophages with Yeast, Yeast # 0",[1]; AII 100 μg/ml,100
same,"# Macrophages with Yeast, Yeast # 1-3",[1]; AII 100 μg/ml,10
same,"# Macrophages with Yeast, Yeast # 4-6",[1]; AII 100 μg/ml,10
same,"# Macrophages with Yeast, Yeast # 7-9",[1]; AII 100 μg/ml,0
same,# Yeast/MO,[1]; AII 100 μg/ml,0.58
same,# Yeast/MO,[1]; AII 1000 μg/ml (highest concentration),1
same,"# Macrophages with Yeast, Yeast # 0",[1]; AII 1000 μg/ml,100
same,"# Macrophages with Yeast, Yeast # 1-3",[1]; AII 1000 μg/ml,20
same,"# Macrophages with Yeast, Yeast # 4-6",[1]; AII 1000 μg/ml,20
same,"# Macrophages with Yeast, Yeast # 7-9",[1]; AII 1000 μg/ml,0
same,mitogenesis and chemotaxis,[2],increases mitogenesis and chemotaxis
same,angiogenic activity,[3],angiogenic
same,ability to generate hydrogen peroxide (respiratory burst),[4],increased the ability of leukocytes to generate hydrogen peroxide
same,HPC colony size / HPC proliferation,"murine HPC; 0 to 100 μg/ml, normal and 5-FU treated bone marrow",HPC colony size increases proportionately
same,macroscopic colonies,murine HPC; 10 μg/ml,18
same,macroscopic colonies,murine HPC; 100 μg/ml,10
